Source: ChEMBL document CHEMBL1201862, “PubChem BioAssay data set” (2004)
Calls of active or inactive are those of the source.

Legend:
Cytochrome P450 2D6 = Cytochrome P450 2D6 (Homo sapiens, UniProt P10635);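 also: CYP2D6 member of a cytochrome P450 panel assay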
Cytochrome P450 1A2 = target: T1, Cytochrome P450 1A2 (Homo sapiens, UniProt P05177);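 also: PubChem cytochrome P450 panel assay, CYP1A2 panel member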
T1 sequence (P05177 whole entry): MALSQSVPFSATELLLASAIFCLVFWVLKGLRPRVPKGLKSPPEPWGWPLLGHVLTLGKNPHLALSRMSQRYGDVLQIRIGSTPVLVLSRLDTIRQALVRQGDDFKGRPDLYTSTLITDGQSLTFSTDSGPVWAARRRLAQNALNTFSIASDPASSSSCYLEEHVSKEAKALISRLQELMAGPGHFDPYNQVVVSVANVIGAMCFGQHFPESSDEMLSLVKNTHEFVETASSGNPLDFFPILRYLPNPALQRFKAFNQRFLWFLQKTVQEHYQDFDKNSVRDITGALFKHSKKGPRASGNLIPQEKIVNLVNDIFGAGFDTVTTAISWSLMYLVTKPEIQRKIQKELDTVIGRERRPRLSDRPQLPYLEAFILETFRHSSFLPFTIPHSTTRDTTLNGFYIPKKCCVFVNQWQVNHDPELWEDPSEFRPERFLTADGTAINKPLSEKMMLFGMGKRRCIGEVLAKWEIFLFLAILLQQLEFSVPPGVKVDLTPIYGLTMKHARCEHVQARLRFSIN

Cytochrome P450 3A4 = Cytochrome P450 3A4 (Homo sapiens, UniProt P08684);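 also: CYP3A4 tested as one member of a cytochrome P450 panel screen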
Cytochrome P450 2C9 = Cytochrome P450 2C9 (Homo sapiens, UniProt P11712)
[1] = target: T2, Replicative DNA helicase DnaB (Mycobacterium tuberculosis, UniProt P9WMR3); assay: DnaB intein splicing inhibitors, dose response, biochemical, cell-free fluorescence (AID 449749); assay type: functional
T2 sequence (P9WMR3 whole entry): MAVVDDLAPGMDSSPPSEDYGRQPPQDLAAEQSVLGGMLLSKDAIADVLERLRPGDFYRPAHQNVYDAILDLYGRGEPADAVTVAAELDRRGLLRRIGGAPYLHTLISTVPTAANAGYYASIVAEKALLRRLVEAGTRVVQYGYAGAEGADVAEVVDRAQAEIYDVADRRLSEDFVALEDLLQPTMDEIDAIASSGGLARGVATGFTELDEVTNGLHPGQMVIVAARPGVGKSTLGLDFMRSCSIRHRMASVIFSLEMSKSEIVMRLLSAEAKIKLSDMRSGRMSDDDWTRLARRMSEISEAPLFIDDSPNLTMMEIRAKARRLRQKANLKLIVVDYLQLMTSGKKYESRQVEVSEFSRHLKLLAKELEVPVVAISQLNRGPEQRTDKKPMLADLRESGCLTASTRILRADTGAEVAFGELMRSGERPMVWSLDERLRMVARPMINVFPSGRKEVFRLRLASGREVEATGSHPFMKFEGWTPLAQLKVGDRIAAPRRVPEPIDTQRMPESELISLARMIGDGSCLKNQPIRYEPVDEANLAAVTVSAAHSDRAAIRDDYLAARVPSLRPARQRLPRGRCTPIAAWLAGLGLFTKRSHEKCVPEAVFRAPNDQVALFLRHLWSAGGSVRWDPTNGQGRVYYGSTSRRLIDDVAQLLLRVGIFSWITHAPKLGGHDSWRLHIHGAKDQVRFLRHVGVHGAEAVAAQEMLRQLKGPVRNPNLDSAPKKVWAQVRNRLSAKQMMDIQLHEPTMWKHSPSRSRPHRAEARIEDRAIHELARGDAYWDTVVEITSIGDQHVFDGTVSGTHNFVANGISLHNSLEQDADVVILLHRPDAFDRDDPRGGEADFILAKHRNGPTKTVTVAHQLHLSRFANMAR

Protein RecA = target: T3, Protein RecA (Mycobacterium tuberculosis, UniProt P9WHJ3); assay: Fluorescence Cell-Free Homogeneous Dose Retest to Identify Inhibitors of RecA-Intein Splicing Activity. [Related pubchem assays (depositor defined):AID2097, AID2223, AID489010, AID492950]; assay type: functional
T3 sequence (P9WHJ3 whole entry): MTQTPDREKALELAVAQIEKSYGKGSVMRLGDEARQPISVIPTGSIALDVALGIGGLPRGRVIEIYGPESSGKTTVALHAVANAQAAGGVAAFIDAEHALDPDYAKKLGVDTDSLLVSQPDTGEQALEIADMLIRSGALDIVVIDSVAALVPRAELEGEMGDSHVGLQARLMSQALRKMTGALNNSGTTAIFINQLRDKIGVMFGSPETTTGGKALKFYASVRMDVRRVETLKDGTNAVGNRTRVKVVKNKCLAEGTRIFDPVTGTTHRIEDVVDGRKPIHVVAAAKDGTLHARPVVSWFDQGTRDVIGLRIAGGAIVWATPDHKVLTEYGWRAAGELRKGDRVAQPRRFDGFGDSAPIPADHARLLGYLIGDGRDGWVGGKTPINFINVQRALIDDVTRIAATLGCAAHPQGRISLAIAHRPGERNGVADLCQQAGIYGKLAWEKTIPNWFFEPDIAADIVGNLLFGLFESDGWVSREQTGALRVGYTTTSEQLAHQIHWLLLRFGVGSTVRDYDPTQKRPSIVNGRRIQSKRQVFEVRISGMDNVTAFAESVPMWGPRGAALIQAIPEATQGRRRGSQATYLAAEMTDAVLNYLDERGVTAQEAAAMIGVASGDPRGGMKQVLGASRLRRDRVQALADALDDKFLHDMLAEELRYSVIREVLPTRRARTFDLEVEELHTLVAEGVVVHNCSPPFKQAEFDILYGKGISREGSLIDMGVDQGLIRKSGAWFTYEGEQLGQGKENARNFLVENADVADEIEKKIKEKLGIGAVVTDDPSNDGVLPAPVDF

[2] = target: T4, Polyadenylate-binding protein 1 (Homo sapiens, UniProt P11940); assay: PABP1 MLLE–PAM2 interaction inhibitors, dose response, miRNA deadenylation inhibitor project, biochemical, fluorescence polarization, Cy5-PAM2 peptide, secondary (AID 602260); assay type: functional; conditions: read-out: IC50_Mean
[3] = target: T4, Polyadenylate-binding protein 1; assay: PABP1 MLLE–PAM2 binding inhibitor potency, dose response, biochemical, fluorescence polarization, FITC-PAM2 peptide (AID 602259); assay type: functional; conditions: read-out: IC50_Mean
[4] = target: T5, Corticotropin-releasing factor receptor 2/Corticotropin-releasing factor-binding protein (Homo sapiens, UniProt P24387+Q13324); assay: activators of CRF receptor 2 with binding protein – uHTS hits, confirmation (AID 602473); assay type: functional; conditions: read-out: EC50_Mean
T5 sequence (Q13324 whole entry): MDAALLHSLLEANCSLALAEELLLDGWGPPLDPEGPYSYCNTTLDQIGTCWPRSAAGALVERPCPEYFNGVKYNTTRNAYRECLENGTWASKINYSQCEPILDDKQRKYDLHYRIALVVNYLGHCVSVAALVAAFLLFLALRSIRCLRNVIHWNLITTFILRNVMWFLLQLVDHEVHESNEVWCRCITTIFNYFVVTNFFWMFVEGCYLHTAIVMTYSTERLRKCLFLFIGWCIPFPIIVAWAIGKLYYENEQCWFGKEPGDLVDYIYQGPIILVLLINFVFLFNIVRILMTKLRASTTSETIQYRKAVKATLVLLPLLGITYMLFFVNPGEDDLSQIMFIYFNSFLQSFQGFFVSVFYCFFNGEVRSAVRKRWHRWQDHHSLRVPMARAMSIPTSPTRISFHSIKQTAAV
T5 sequence (P24387 whole entry): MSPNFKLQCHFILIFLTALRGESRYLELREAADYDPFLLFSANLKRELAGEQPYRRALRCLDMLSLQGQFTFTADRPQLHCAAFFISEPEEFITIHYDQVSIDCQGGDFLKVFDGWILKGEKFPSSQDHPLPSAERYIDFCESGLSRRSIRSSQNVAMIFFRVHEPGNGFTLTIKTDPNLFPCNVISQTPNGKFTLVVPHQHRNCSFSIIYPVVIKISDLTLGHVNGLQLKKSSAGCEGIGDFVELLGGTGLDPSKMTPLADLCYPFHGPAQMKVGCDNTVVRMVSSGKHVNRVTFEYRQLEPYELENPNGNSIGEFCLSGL

Chain of Cytochrome P450 2C9 (P11712 whole entry): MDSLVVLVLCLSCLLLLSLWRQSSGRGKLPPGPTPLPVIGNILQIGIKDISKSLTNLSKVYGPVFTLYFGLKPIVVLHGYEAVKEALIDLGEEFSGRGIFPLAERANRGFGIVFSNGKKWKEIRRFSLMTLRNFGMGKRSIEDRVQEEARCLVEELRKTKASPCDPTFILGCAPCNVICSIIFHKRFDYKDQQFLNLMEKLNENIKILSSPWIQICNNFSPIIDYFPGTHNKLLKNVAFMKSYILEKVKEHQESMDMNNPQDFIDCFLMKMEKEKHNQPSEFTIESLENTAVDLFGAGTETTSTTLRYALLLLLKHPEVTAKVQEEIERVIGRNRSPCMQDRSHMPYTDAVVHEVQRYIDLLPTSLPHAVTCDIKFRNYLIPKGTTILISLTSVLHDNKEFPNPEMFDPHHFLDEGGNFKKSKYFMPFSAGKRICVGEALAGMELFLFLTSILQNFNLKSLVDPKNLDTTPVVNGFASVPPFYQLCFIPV
T4 sequence (P11940 whole entry): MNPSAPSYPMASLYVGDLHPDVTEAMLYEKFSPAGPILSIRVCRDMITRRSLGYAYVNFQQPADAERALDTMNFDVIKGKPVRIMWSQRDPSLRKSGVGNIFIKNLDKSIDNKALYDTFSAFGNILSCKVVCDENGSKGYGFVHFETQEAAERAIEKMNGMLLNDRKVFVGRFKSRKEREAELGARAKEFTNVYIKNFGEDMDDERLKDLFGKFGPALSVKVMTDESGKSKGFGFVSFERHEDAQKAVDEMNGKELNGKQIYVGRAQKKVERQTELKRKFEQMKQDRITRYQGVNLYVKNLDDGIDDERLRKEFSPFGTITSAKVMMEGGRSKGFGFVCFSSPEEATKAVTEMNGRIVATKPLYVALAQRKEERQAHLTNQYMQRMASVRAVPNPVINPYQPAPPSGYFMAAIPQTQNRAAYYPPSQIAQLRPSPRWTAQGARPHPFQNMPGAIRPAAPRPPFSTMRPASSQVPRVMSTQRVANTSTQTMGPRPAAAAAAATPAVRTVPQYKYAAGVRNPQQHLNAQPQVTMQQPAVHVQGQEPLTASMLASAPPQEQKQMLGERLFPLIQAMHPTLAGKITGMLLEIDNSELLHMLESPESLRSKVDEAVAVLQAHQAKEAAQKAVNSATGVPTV
Chain of Cytochrome P450 2D6 (P10635 whole entry): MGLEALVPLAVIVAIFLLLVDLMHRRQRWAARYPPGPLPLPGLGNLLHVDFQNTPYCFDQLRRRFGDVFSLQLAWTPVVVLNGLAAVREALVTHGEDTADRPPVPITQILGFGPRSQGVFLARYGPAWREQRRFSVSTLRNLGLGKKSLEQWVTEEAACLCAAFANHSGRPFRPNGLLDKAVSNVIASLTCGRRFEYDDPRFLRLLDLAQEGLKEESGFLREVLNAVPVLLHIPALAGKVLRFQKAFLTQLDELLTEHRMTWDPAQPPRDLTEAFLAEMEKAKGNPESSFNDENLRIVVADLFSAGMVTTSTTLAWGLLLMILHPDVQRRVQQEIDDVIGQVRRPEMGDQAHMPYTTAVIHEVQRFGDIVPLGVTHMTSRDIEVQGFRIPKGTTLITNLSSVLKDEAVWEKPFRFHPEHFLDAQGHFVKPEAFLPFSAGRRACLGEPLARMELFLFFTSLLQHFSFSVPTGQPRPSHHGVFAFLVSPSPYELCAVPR
Chain of Cytochrome P450 3A4 (P08684 whole entry): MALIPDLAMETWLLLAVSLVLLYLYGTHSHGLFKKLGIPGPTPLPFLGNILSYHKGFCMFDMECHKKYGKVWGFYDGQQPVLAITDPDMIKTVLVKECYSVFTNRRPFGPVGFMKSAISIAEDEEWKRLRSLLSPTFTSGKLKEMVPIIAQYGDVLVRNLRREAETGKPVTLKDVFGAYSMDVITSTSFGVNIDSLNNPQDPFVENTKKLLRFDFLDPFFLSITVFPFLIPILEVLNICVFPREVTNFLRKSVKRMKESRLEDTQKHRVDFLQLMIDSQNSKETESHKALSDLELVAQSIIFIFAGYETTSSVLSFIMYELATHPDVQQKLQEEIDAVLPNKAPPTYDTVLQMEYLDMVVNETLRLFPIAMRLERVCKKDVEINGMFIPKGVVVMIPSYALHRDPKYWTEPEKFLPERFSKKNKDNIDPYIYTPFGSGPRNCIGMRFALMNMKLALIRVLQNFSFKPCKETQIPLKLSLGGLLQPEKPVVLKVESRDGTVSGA

Row | SMILES | AC50 (Cytochrome P450 2D6) | AC50 [1] | EC50 (Protein RecA) | IC50 [2] | IC50 [3] | other results
1 | Cn1cccc1C(=O)N1CCC2(CCCN(c3ccccn3)C2)CC1 | 25.1 µM (inconclusive) | – | – | – | – | AC50 (Cytochrome P450 1A2): 20 µM (inconclusive); AC50 (Cytochrome P450 3A4): 20 µM (inconclusive); AC50 (Cytochrome P450 2C9): 25.1 µM (inconclusive)
2 | O=C(N/N=C\c1ccc(-c2ccccc2[N+](=O)[O-])o1)C1COc2ccccc2O1 (centres undefined) | – | 7.94 µM (active) | 12.4 µM (active) | – | – | –
3 | COc1ccc(CCN(C)Cc2ccc(OCc3ccccc3)c(OC)c2)cc1OC | 14.1 µM (inconclusive) | – | – | – | – | AC50 (Cytochrome P450 1A2): 39.8 µM (inconclusive); AC50 (Cytochrome P450 2C9): 15.8 µM (inconclusive)
4 | CCOc1ccc(-n2c(C)nc3cc(C(=O)NCc4ccco4)ccc32)cc1 | 11.2 µM (inconclusive) | – | – | – | – | AC50 (Cytochrome P450 1A2): 25.1 µM (inconclusive)
5 | O=C(NC(=S)Nc1cccc(O)c1)c1cncc(Br)c1 | – | – | – | > 66 µM (inactive) | > 66 µM (inactive) | –
6 | COC(=O)c1c(C)oc2ccc(N(C(=O)c3ccncc3)S(=O)(=O)c3ccccc3)cc12 | 0.0355 µM (inconclusive) | – | – | – | – | –
7 | COc1cccc(N2CC(C(=O)Nc3nnc(SCC(=O)c4ccccc4)s3)CC2=O)c1 (centres undefined) | – | 181 µM (active) | > 380 µM (inactive) | – | – | –
8 | O=Cc1c(N2CCN(CCO)CC2)nc2ccccn2c1=O | – | – | – | > 66 µM (inactive) | > 66 µM (inactive) | EC50 [4]: > 53 µM (inactive)
9 | CN(C1CCCCC1)S(=O)(=O)c1ccc(S)nc1 | – | – | – | > 66 µM (inactive) | > 66 µM (inactive) | –
10 | O=C(NC(=S)Nc1cccnc1)c1cccs1 | – | – | – | > 66 µM (inactive) | > 66 µM (inactive) | –
11 | CC1(C)CC2(C)OC(=N)C1(C#N)C2(C#N)C#N (centres undefined) | – | 70.3 µM (active) | 12.3 µM (active) | – | – | –
12 | O=C(CSc1ncnc2c1nnn2Cc1ccc(F)cc1)NCC1CCCO1 (centres undefined) | – | 14.3 µM (active) | 10.2 µM (active) | – | – | –
13 | Nc1nc(NCCc2ccc(O)cc2)nc2nc(-c3ccco3)nn12 [ZM-241385] | 10 µM (inconclusive) | – | – | – | – | AC50 (Cytochrome P450 1A2): 31.6 µM (inconclusive); AC50 (Cytochrome P450 2C9): 39.8 µM (inconclusive)
14 | Cc1ccc(C(=O)NC(=S)NNS(=O)(=O)c2ccccc2)cc1 | – | – | – | > 66 µM (inactive) | > 66 µM (inactive) | –
15 | CCS(=O)(=O)C1=NN2C(=N)/C(=C\c3ccc(OC(=O)c4ccco4)cc3)C(=O)N=C2S1 | – | > 380 µM (inactive) | 19.4 µM (active) | – | – | –
